In PMC9715946, “Bioenhancing effects of piperine and curcumin on triterpenoid pharmacokinetics and neurodegenerative metabolomes from Centella asiatica extract in beagle dogs” (Scientific Reports, 2022):

Experiments:
[1] = design: method as in PMID 19934593; conditions: pre-treatment with curcumin 60 mg/kg; cited from earlier work
[2] = piperine in combination, self-emulsifying drug delivery systems; cited from earlier work
[3] = Pharmacokinetic study: plasma triterpenoids by LCMS, non-compartmental analysis; design: species or system beagle dogs; conditions: dog, in vivo; for Tmax: 20 mg/kg
Text: The proposed animal experiment was approved by the Institutional Animal Care and Use Committee of the Chulalongkorn University Laboratory Animal Centre (CULAC), Chulalongkorn University, Bangkok, Thailand (Protocol number 2073029, Approval date: […] The dogs were fed with a normal dog diet (Beauty Pro, Nippon Pet Food Co. Ltd.) once a day and water ad libitum. Two groups of four dogs were randomly used with a 2-week washout period. […] After receiving the test substances, the dogs were transferred to a metabolic cage for 48 h for the collection of urine and faeces. All animal procedures were performed in accordance with the ethical principles, regulations, and guidelines for the use of animals (National Research Council of Thailand, 2015). This study was conducted in compliance with the ARRIVE guidelines. Four experimental groups received the oral test compound once daily for seven consecutive days, as follows: ([…] 20 […] 20 mg/kg + piperine 20 mg/kg; ([…] 20 mg/kg + curcumin 20 mg/kg; and (iv) […] 20 mg/kg + piperine 20 mg/kg + curcumin 20 mg/kg. The test substance powders received from the suppliers were packed into gelatine capsule, and the dogs were orally administered two to four capsules in the morning, according to the number of test substances required in the experimental plan. Blood samples (2-3 mL) were withdrawn from the cephalic or saphenous vein using an IV catheter and placed in heparinised tubes. […] The pre-dose and 24 h post-dose blood chemistry parameters were determined by the Small Animal Hospital, Faculty of Veterinary Science, Chulalongkorn University for all dogs, in order to monitor the health status of the dogs. […] All biological samples were kept at - 80 °C until required for analysis. Where the concentration of the samples exceeded the linear calibration curve, blank matrices were used to dilute the sample before protein precipitation. Methanol was used to extract the major triterpenoids from the biological samples for LCMS analysis. In brief, 50 μL of the biological sample was added to 200 μL methanol containing glycyrrhizin and glycyrrhetinic acid as internal standards. The mixture was then centrifuged at 12,000g for 10 min at 4 °C to collect the supernatant, and 10 μL of the supernatant was injected into the LCMS system to measure the concentration of the targeted analytes. […] A Synergi Fusion-RP C18 column (Phenomenex Inc.) was selected as the stationary phase and maintained at 40 °C in the column oven. […] The lower limit of quantification (LLOQ) of each of the compounds in this study ranged from 1.00 to 10.00 μg/L, according to the compound. After oral administration, pharmacokinetic parameters were determined by PK solution software version 2.0 (Submit Research Services, USA.) using non-compartmental analysis. The maximum plasma concentration (Cmax) and time to reach maximum plasma concentration (Tmax) were calculated directly from the concentration-time curves. The area under the curve from time 0-24 h (AUC0-24) was determined by the trapezoidal method and extrapolated to time infinity by the equation AUC0-inf = AUC0-24 + (Clast/kel), where Clast is the last measurable plasma concentration and kel is the elimination rate constant. The rate of […] was equal to - 2.303 × slope. The mean residence time (MRT) was calculated as AUMC0-inf/AUC0-inf, where AUMC0-inf is the area under the first moment curve. The volume of distribution (Vd) was equivalent to dose/C0, where C0 is the concentration of drug measured in plasma at time zero. The total clearance (CL) was equal to dose/AUC0-inf, and the elimination half-life was determined by 0.693/kel. […] The difference in blood chemistry parameters pre-dose and post-dose was compared using Student's t test. SPSS version 22.0 (IBM Corp.) was used to determine statistically significant differences between the experimental groups. […]

[4] = in combination with 100 mg/kg of curcumin; cited from earlier work

For CCn1cc(C(=O)O)c(=O)c2cc(F)c(N3CCNCC3)cc21 [norfloxacin], the “Increase of AUC compared with the control group” value [1] is given as “approximately two-fold”.
In the case of C=C(C)[C@@H]1CCC(C)=C[C@H]1c1c(O)cc(CCCCC)cc1O [cannabidiol], the “Improvement of oral bioavailability compared to the control group” value [2] is given as “approximately 2.5 fold”.
For madecassoside, the “Increase of systemic exposure (Cmax and AUC) by Centell-S + piperine compared to Centell-S alone” value [3] was 1.5 to 3.0 fold, the “Time to reach maximum plasma concentration” value [3] was 2 to 4 h and the “Time to reach maximum plasma concentration” value ([3]; po) was 1 to 2 h.
In the case of C[C@H]1[C@H](C)CC[C@]2(C(=O)O)CC[C@]3(C)C(=CC[C@@H]4[C@@]5(C)C[C@@H](O)[C@H](O)[C@@](C)(CO)[C@@H]5CC[C@]43C)[C@H]12 [Asiatic acid, asiatic acid], the “Increase of systemic exposure (Cmax and AUC) by Centell-S + piperine compared to Centell-S alone” value ([3]; male, beagle) is reported as 1.5 to 3.0 fold, the Accumulation ratio ([3]; male, beagle, 7 days) is reported as 1.05–1.44 and the Tmax ([3]; male, beagle, po, Time to reach maximum plasma concentration) is reported as 2 to 4 h. For the same compound, the Tmax ([3]; male, beagle, po, Tmax) was 2 h.
For CC(=O)O[C@@]12CO[C@@H]1C[C@H](O)[C@@]1(C)C(=O)[C@H](O)C3=C(C)[C@@H](OC(=O)[C@H](O)[C@@H](NC(=O)OC(C)(C)C)c4ccccc4)C[C@@](O)([C@@H](OC(=O)c4ccccc4)[C@H]21)C3(C)C [docetaxel], the “Increase of bioavailability compared to the control group” value [4] is listed as “approximately eight-fold”.
